Target: T1, Human Factor XIIa (hFXIIa) (Homo sapiens, UniProt P00748)
T1 construct: purchased Enzyme Research Laboratories
T1 sequence (P00748 373-615 limits assumed): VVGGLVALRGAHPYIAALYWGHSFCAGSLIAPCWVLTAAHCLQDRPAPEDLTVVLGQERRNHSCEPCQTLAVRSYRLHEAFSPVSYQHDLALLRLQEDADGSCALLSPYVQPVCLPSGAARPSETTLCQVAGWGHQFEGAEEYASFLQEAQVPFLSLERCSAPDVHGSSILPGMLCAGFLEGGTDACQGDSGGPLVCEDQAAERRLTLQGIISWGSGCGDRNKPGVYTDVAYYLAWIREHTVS
T1 sequence (P00748 20-372 partner limits assumed): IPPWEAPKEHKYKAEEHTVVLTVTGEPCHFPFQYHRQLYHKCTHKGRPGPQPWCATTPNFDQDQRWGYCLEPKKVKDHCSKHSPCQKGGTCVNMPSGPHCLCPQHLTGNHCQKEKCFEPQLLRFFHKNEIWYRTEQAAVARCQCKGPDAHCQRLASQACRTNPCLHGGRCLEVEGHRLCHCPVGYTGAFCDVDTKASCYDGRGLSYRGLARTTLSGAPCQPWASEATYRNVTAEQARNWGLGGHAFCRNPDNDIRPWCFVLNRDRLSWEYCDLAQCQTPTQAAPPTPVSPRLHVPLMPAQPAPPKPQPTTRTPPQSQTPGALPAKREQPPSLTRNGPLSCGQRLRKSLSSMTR
Test: Determination of Human Factor XIIa (hFXIIa) inhibition, fluorogenic substrate IC50 assay
Type: biochemical
Details: fluorogenic substrate H-DPro-Phe-Arg-AFC at Km, 25° C., read-out: Human FXIIa IC50
Method: Determination of Human Factor XIIa (hFXIIa) inhibition
The Km for the cleavage of the substrate by hFXIIa was determined by standard transformation of the Michaelis-Menten equation, with subsequent inhibition assays performed at substrate Km concentration.

Row | Compound | IC50 [nM]
1 | C[C@H](NC(=O)c1nn(-c2cccc(Cl)c2)c2c1CCN(c1ccc3c(c1)CN(CCO)CC3)C2=O)c1cccnc1 [Example 1131, (S)-1-(3-chlorophenyl)-6-(2-(2-hydroxyethyl)-1,2,3,4-tetrahydroisoquinolin-7-yl)-7-oxo-N-(1-(pyridin-3-yl)ethyl)-4,5,6,7-tetrahydro-1H-pyrazolo[3,4-c]pyridine-3-carboxamide] | 100 to 300
2 | O=C(Cn1nc(-c2cccc(Cl)c2)c2c1CCN(c1ccc3c(c1)CN(CCO)CC3)C2=O)NC1CC1 [Example 4004, 2-(3-(3-chlorophenyl)-5-(2-(2-hydroxyethyl)-1,2,3,4-tetrahydroisoquinolin-7-yl)-4-oxo-4,5,6,7-tetrahydro-1H-pyrazolo[4,3-c]pyridin-1-yl)-N-cyclopropylacetamide] | 1000 to 3000
3 | CN1CCc2ccc(N3CCc4c(C(=O)NCC5CCO5)nn(-c5cccc(Cl)c5)c4C3=O)cc2C1 (centres unmarked) [Example 1045, 1-(3-chlorophenyl)-6-(2-methyl-1,2,3,4-tetrahydroisoquinolin-7-yl)-N-(oxetan-2-ylmethyl)-7-oxo-4,5,6,7-tetrahydro-1H-pyrazolo[3,4-c]pyridine-3-carboxamide] | 300 to 1000
4 | CCN1CCc2cc(C)c(N3CCc4c(C(=O)NCC5CC5)nn(-c5cccc(Cl)c5)c4C3=O)cc2C1 [Example 1054, 1-(3-Chlorophenyl)-N-(cyclopropylmethyl)-6-(2-ethyl-6-methyl-1,2,3,4-tetrahydroisoquinolin-7-yl)-7-oxo-4,5,6,7-tetrahydro-1H-pyrazolo[3,4-c]pyridine-3-carboxamide] | 100 to 300
5 | CN1CCc2ccc(N3CCc4c(C(=O)NCC5CC5)nn(-c5cc(Cl)cc(C(N)=O)c5)c4C3=O)cc2C1=O [Example 2014, 1-(3-carbamoyl-5-chlorophenyl)-N-(cyclopropylmethyl)-6-(2-methyl-1-oxo-1,2,3,4-tetrahydroisoquinolin-7-yl)-7-oxo-4,5,6,7-tetrahydro-1H-pyrazolo[3,4-c]pyridine-3-carboxamide] | 300 to 1000
6 | O=C1CC[C@@H](CN2CCc3ccc(N4CCc5c(C(=O)NCC6CC6)nn(-c6cccc(Cl)c6)c5C4=O)cc3C2)N1 [Example 1124, (S)-1-(3-chlorophenyl)-N-(cyclopropylmethyl)-7-oxo-6-(2-((5-oxopyrrolidin-2-yl)methyl)-1,2,3,4-tetrahydroisoquinolin-7-yl)-4,5,6,7-tetrahydro-1H-pyrazolo[3,4-c]pyridine-3-carboxamide] | 300 to 1000
7 | CN1CCc2ccc(-n3cnc4c(C#N)nn(-c5cccc(Cl)c5)c4c3=O)cc2C1 [Example 3001, 1-(3-chlorophenyl)-6-(2-methyl-1,2,3,4-tetrahydroisoquinolin-7-yl)-7-oxo-6,7-dihydro-1H-pyrazolo[4,3-d]pyrimidine-3-carbonitrile] | 300 to 1000
8 | Cc1cnccc1CNC(=O)c1nn(-c2cccc(Cl)c2)c2c1CCN(c1ccc3c(c1)CN(CCO)CC3)C2=O [Example 1163, 1-(3-chlorophenyl)-6-(2-(2-hydroxyethyl)-1,2,3,4-tetrahydroisoquinolin-7-yl)-N-((3-methylpyridin-4-yl)methyl)-7-oxo-4,5,6,7-tetrahydro-1H-pyrazolo[3,4-c]pyridine-3-carboxamide] | 10 to 100
9 | Cc1ccc(N2CCc3c(C(=O)NCC4CC4)nn(-c4cccc(Cl)c4)c3C2=O)cc1C(=O)N(C)C [Example 1244, 1-(3-chlorophenyl)-N-(cyclopropylmethyl)-6-(3-(dimethylcarbamoyl)-4-methylphenyl)-7-oxo-4,5,6,7-tetrahydro-1H-pyrazolo[3,4-c]pyridine-3-carboxamide] | 3000 to 10000
10 | CN(CCO)C(=O)c1cccc(N2CCc3c(C(=O)NCC4CC4)nn(-c4cccc(Cl)c4)c3C2=O)c1 [Example 1312, 1-(3-chlorophenyl)-N-(cyclopropylmethyl)-6-(3-((2-hydroxyethyl)(methyl)carbamoyl)phenyl)-7-oxo-4,5,6,7-tetrahydro-1H-pyrazolo[3,4-c]pyridine-3-carboxamide] | 3000 to 10000
11 | CN(C(=O)c1cccc(N2CCc3c(C(=O)NCC4CC4)nn(-c4cccc(Cl)c4)c3C2=O)c1)C1CC1 [Example 1270, 1-(3-chlorophenyl)-6-(3-(cyclopropyl(methyl)carbamoyl)phenyl)-N-(cyclopropylmethyl)-7-oxo-4,5,6,7-tetrahydro-1H-pyrazolo[3,4-c]pyridine-3-carboxamide] | 10000 to 40000
12 | Cc1cc(CNC(=O)c2nn(-c3cccc(Cl)c3)c3c2CCN(c2ccc4c(c2)C(=O)N(CCO)CCO4)C3=O)nn1C [Example 1288, 1-(3-Chlorophenyl)-N-[(1,5-dimethylpyrazol-3-yl)methyl]-6-[4-(2-hydroxyethyl)-5-oxo-2,3-dihydro-1,4-benzoxazepin-7-yl]-7-oxo-4,5-dihydropyrazolo[3,4-c]pyridine-3-carboxamide] | 10 to 100
13 | Cc1n[nH]c(C)c1CNC(=O)c1nn(-c2cccc(Cl)c2)c2c1CCN(c1ccc3c(c1)C(=O)N(C)CC3)C2=O [Example 1268, 1-(3-chlorophenyl)-N-((3,5-dimethyl-1H-pyrazol-4-yl)methyl)-6-(2-methyl-1-oxo-1,2,3,4-tetrahydroisoquinolin-7-yl)-7-oxo-4,5,6,7-tetrahydro-1H-pyrazolo[3,4-c]pyridine-3-carboxamide] | 300 to 1000
14 | Cc1cccnc1CNC(=O)c1nn(-c2cccc(Cl)c2)c2c1CCN(c1ccc3c(c1)CN(CCO)CC3)C2=O [Example 1136, 1-(3-chlorophenyl)-6-(2-(2-hydroxyethyl)-1,2,3,4-tetrahydroisoquinolin-7-yl)-N-((3-methylpyridin-2-yl)methyl)-7-oxo-4,5,6,7-tetrahydro-1H-pyrazolo[3,4-c]pyridine-3-carboxamide] | 10 to 100
15 | CN1CCc2ccc(N3CCc4c(C(=O)NC5COCC5CO)nn(-c5cccc(Cl)c5)c4C3=O)cc2C1=O (centres unmarked) [Example 1251, 1-(3-chlorophenyl)-N-(4-(hydroxymethyl)tetrahydrofuran-3-yl)-6-(2-methyl-1-oxo-1,2,3,4-tetrahydroisoquinolin-7-yl)-7-oxo-4,5,6,7-tetrahydro-1H-pyrazolo[3,4-c]pyridine-3-carboxamide] | 300 to 1000

Results, then the compound that gave them:

Row | IC50 [nM] | Compound
16 | 300 to 1000 | CC1(C)OCCC1NC(=O)c1nn(-c2cccc(Cl)c2)c2c1CCN(c1cccc(CN3CCCCC3)c1)C2=O (centres unmarked) [Example 1164, 1-(3-chlorophenyl)-N-(2,2-dimethyltetrahydrofuran-3-yl)-7-oxo-6-(3-(piperidin-1-ylmethyl)phenyl)-4,5,6,7-tetrahydro-1H-pyrazolo[3,4-c]pyridine-3-carboxamide]
17 | 100 to 300 | CN1CCc2ccc(N3CCc4c(C(=O)NC5CC6CCC5O6)nn(-c5cccc(Cl)c5)c4C3=O)cc2C1 (centres unmarked) [Example 1075, N-(7-oxabicyclo[2.2.1]heptan-2-yl)-1-(3-chlorophenyl)-6-(2-methyl-1,2,3,4-tetrahydroisoquinolin-7-yl)-7-oxo-4,5,6,7-tetrahydro-1H-pyrazolo[3,4-c]pyridine-3-carboxamide]
18 | 1000 to 3000 | O=C(NCC1CC1)c1nn(-c2cccc(Cl)c2)c2c1CCN(c1cccc(CN3CC4CC4C3)c1)C2=O (centres unmarked) [Example 1073, 6-(3-((3-azabicyclo[3.1.0]hexan-3-yl)methyl)phenyl)-1-(3-chlorophenyl)-N-(cyclopropylmethyl)-7-oxo-4,5,6,7-tetrahydro-1H-pyrazolo[3,4-c]pyridine-3-carboxamide]
19 | 300 to 1000 | Cc1nc2c(C(=O)NCC3CC3)nn(-c3cccc(Cl)c3F)c2c(=O)n1-c1ccc2c(c1)C(=O)N(C)CCO2 [Example 3023, 1-(3-chloro-2-fluorophenyl)-N-(cyclopropylmethyl)-5-methyl-6-(4-methyl-5-oxo-2,3,4,5-tetrahydrobenzo[f][1,4]oxazepin-7-yl)-7-oxo-6,7-dihydro-1H-pyrazolo[4,3-d]pyrimidine-3-carboxamide]
20 | 300 to 1000 | CCN1Cc2cc(N3CCc4c(C(=O)NCC5CC5)nn(-c5cccc(Cl)c5)c4C3=O)ccc2C(C)(C)C1 [Example 1082, 1-(3-chlorophenyl)-N-(cyclopropylmethyl)-6-(2-ethyl-4,4-dimethyl-1,2,3,4-tetrahydroisoquinolin-7-yl)-7-oxo-4,5,6,7-tetrahydro-1H-pyrazolo[3,4-c]pyridine-3-carboxamide]
21 | 100 to 300 | COc1ccc(CNC(=O)c2nn(-c3cccc(Cl)c3)c3c2CCN(c2cccc(CN4CCCCC4)c2)C3=O)cn1 [Example 1173, 1-(3-chlorophenyl)-N-((6-methoxypyridin-3-yl)methyl)-7-oxo-6-(3-(piperidin-1-ylmethyl)phenyl)-4,5,6,7-tetrahydro-1H-pyrazolo[3,4-c]pyridine-3-carboxamide]
22 | 1000 to 3000 | O=C(O)CN1CCc2ccc(N3CCc4c(C(=O)NCC5CC5)nn(-c5cccc(Cl)c5)c4C3=O)cc2C1 [Example 1095, 2-(7-(1-(3-chlorophenyl)-3-((cyclopropylmethyl)carbamoyl)-7-oxo-1,4,5,7-tetrahydro-6H-pyrazolo[3,4-c]pyridin-6-yl)-3,4-dihydroisoquinolin-2(1H)-yl)acetic acid]
23 | 10000 to 40000 | CN(C)C(=O)c1cncc(N2CCc3c(C(=O)NCC4CC4)nn(-c4cccc(Cl)c4)c3C2=O)c1 [Example 1279, 1-(3-chlorophenyl)-N-(cyclopropylmethyl)-6-(5-(dimethylcarbamoyl)pyridin-3-yl)-7-oxo-4,5,6,7-tetrahydro-1H-pyrazolo[3,4-c]pyridine-3-carboxamide]
